# Measurements from US20250223618A1, “METHOD FOR PRODUCING MULTI-HYDROXY DERIVATIVES OF POLYUNSATURATED FATTY ACIDS” (KOREA RESEARCH INSTITUTE OF BIOSCIENCE AND BIOTECHNOLOGY, priority 2018, published 2025).
# T1: Protein having amino acid sequence of SEQ ID NO: 2 (protein K9V; enzyme for producing tri-hydroxy or tetra-hydroxy derivative of polyunsaturated fatty acids) (Phormidium nigroviride, UniProt K9VMV7)
# T1 construct: Ni-NTA purified
# T1 sequence (K9VMV7 1-571): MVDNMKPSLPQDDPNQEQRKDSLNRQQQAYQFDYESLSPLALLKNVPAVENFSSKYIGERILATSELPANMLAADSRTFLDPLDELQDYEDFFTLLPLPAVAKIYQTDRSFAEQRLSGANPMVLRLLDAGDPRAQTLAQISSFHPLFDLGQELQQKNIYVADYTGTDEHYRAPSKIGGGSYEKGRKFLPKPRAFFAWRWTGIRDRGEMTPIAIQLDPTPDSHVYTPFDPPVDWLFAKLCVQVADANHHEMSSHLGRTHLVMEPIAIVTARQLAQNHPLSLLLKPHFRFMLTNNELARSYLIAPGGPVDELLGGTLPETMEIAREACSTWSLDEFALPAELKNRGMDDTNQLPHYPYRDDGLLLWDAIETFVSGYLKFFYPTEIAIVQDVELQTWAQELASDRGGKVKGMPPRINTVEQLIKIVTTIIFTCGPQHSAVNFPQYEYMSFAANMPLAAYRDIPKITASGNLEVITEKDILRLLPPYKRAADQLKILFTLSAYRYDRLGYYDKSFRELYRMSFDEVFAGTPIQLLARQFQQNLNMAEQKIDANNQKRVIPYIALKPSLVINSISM
# Columns and labels:
# [1] = molecular target: T1, Protein having amino acid sequence of SEQ ID NO: 2 (protein K9V; enzyme for producing tri-hydroxy or tetra-hydroxy derivative of polyunsaturated fatty acids); experiment: Reaction rate (Km, Kcat) under optimal conditions, protein of SEQ ID NO: 2; type: biochemical; conditions: pH 7.0, 30° C.
# Description: Under optimal conditions confirmed in [4-1] and [4-2] above, Km and Kcat values of the protein having the amino acid sequence of SEQ ID NO: 1 and the protein having the amino acid sequence of SEQ ID NO: 2 were examined.
# [2] = molecular target: Protein having amino acid sequence of SEQ ID NO: 1 (protein K9V_A296G; enzyme for producing di-hydroxy derivative of polyunsaturated fatty acids) (Phormidium nigroviride, UniProt K9VMV7, A296G); conditions: pH 8.0, 20° C.
# Description: At this time, 50 mM of a sodium phosphate buffer in the case of pH 7.0, 50 mM of a Tris-HCl buffer in the case of pH 8.0, and 50 mM of a sodium borate buffer in the case of pH 9.0 to pH 11.0 were used, respectively.
# [3] = test system: human breast cancer cells MDA-MB-231; experiment: Proliferation of human breast cancer cells; type: cell-based; conditions: same concentration as in mammospheres (0 to 60 μM), FIG. 10A
# Description: (§1) The purified derivatives were treated to human beast cancer cells and human beast cancer-derived cancer stem cells and then the effects thereof were confirmed.
# More specifically, first, human breast cancer cells MDA-MB-231 (ATCC) were incubated at a density of 1×10^6 cells in a 10 cm culture dish with a DMEM medium added with 10% fetal bovine serum (FBS, Hyclone), 100 U/ml penicillin, and 100 μg/ml of streptomycin (carbon dioxide 5%, 37° C.).
# [4] = test system: mammospheres of the human beast cancer-derived cancer stem cells; experiment: Proliferation of mammospheres of breast cancer-derived cancer stem cells; type: cell-based; conditions: treated at the concentration of 0 to 60 μM; FIG. 10A/10B
# Description: as §1
# The human breast cancer cells MDA-MB-231 were incubated at a density of 0.5 to 1×10^4 cells in a ultra-low attachment 6-well plate containing 2 ml of a Complete MammoCult™ medium (StemCell Technologies, Canada) added with 4 μg/ml of heparin, 0.48 μg/ml of hydrocortisone, 100 U/ml of penicillin, and 100 μg/ml of streptomycin (carbon dioxide 5%, 37° C.) to form mammospheres of the human beast cancer-derived cancer stem cells.
# [5] = Effect of pH on enzyme activity (13S-hydroxy-octadecadienoic acid formed); type: biochemical; conditions: 10 KU/ml protein, 100 μM linoleic acid, 30 minutes
# Description: (§2) In the same manner as in Example [3-1], the concentration of 13S-hydroxy-octadecadienoic acid in the reaction product was measured, and relative values thereof were compared with each other.
# [6] = Effect of temperature on enzyme activity (13S-hydroxy-octadecadienoic acid formed); type: biochemical; conditions: 100 μM linoleic acid, pH 7, 20° C. to 50° C., 30 minutes
# Description: as §2
molecule,measurement,setting,value
CCCCC/C=C\C/C=C\CCCCCCCC(=O)O [linoleic acid],Kcat,[1],0.0067 ± 0.00033 s⁻¹
same,Km,[1],79.4 ± 0.8 µM
same,Kcat,[2],0.392 ± 0.0167 s⁻¹
same,Km,[2],46.8 ± 1 µM
CCC(O)/C=C/C=C/C=C/C(O)C/C=C/C/C=C/C/C=C/CCC(=O)O (stereo not shown) [di-hydroxy derivative],proliferation of the breast cancer cells,[3],no effect
same,proliferation of the mammospheres of the beast cancer-derived cancer stem cells,[4],inhibited
"Protein having amino acid sequence of SEQ ID NO: 1: enzyme for producing a di-hydroxy derivative of polyunsaturated fatty acids, about 65 KDa, expressed in E. coli (protein, K9V_A296G, enzyme for producing a di-hydroxy derivative of polyunsaturated fatty acids, about 65 KDa, expressed in E. coli) MVDNMKPSLPQDDPNQEQRKDSLNRQQQAYQFDYESLSPLALLKNVPAVENFSSKYIGERILATSELPANMLAADSRTFLDPLDELQDYEDFFTLLPLPAVAKIYQTDRSFAEQRLSGANPMVLRLLDAGDPRAQTLAQISSFHPLFDLGQELQQKNIYVADYTGTDEHYRAPSKIGGGSYEKGRKFLPKPRAFFAWRWTGIRDRGEMTPIAIQLDPTPDSHVYTPFDPPVDWLFAKLCVQVADANHHEMSSHLGRTHLVMEPIAIVTARQLAQNHPLSLLLKPHFRFMLTNNELGRSYLIAPGGPVDELLGGTLPETMEIAREACSTWSLDEFALPAELKNRGMDDTNQLPHYPYRDDGLLLWDAIETFVSGYLKFFYPTEIAIVQDVELQTWAQELASDRGGKVKGMPPRINTVEQLIKIVTTIIFTCGPQHSAVNFPQYEYMSFAANMPLAAYRDIPKITASGNLEVITEKDILRLLPPYKRAADQLKILFTLSAYRYDRLGYYDKSFRELYRMSFDEVFAGTPIQLLARQFQQNLNMAEQKIDANNQKRVIPYIALKPSLVINSISM",pH of better (optimal) enzyme activity,"[5]; pH 7 to pH 11, 25° C., FIG. 8A",~8.0
same,temperature of better (optimal) enzyme activity,"[6]; 50 KU/ml protein, FIG. 9A",~20 °C
"Protein having amino acid sequence of SEQ ID NO: 2: enzyme for producing a tri-hydroxy or tetra-hydroxy derivative of polyunsaturated fatty acids, about 65 KDa, expressed in E. coli (protein, enzyme (K9V), enzyme for producing a tri-hydroxy or tetra-hydroxy derivative of polyunsaturated fatty acids, about 65 KDa, expressed in E. coli) MVDNMKPSLPQDDPNQEQRKDSLNRQQQAYQFDYESLSPLALLKNVPAVENFSSKYIGERILATSELPANMLAADSRTFLDPLDELQDYEDFFTLLPLPAVAKIYQTDRSFAEQRLSGANPMVLRLLDAGDPRAQTLAQISSFHPLFDLGQELQQKNIYVADYTGTDEHYRAPSKIGGGSYEKGRKFLPKPRAFFAWRWTGIRDRGEMTPIAIQLDPTPDSHVYTPFDPPVDWLFAKLCVQVADANHHEMSSHLGRTHLVMEPIAIVTARQLAQNHPLSLLLKPHFRFMLTNNELARSYLIAPGGPVDELLGGTLPETMEIAREACSTWSLDEFALPAELKNRGMDDTNQLPHYPYRDDGLLLWDAIETFVSGYLKFFYPTEIAIVQDVELQTWAQELASDRGGKVKGMPPRINTVEQLIKIVTTIIFTCGPQHSAVNFPQYEYMSFAANMPLAAYRDIPKITASGNLEVITEKDILRLLPPYKRAADQLKILFTLSAYRYDRLGYYDKSFRELYRMSFDEVFAGTPIQLLARQFQQNLNMAEQKIDANNQKRVIPYIALKPSLVINSISM",pH of better (optimal) enzyme activity,"[5]; pH 6 to pH 11, 25° C., FIG. 8B",~8.0
same,temperature of better (optimal) enzyme activity,"[6]; 10 KU/ml protein, FIG. 9B",~30 °C
